Measured values published in patent publication US20070219185A1, “Preventive or therapeutic agent for neuropathic pain” (priority 2004, published 2007).

Assays:
[1] = test system: STZ-induced diabetic rats; test: Nociceptive threshold in STZ-induced diabetic rats (repeated administration), Randall-Selitto method; type: in vivo, rat; conditions: for Nociceptive threshold before administration / Nociceptive threshold after administration / nociceptive threshold following repeated administration for 14 days: Example 2; for Nociceptive threshold before administration / Nociceptive threshold after administration: 14 times, mean±SE; for Nociceptive threshold before administration: before the final administration; for Nociceptive threshold after administration: one hour after the final administration; for nociceptive threshold following repeated administration for 14 days: H group (clonidine 1.0 mg/kg subcutaneous; terbutaline 10 mg/kg oral), versus Control group; for nociceptive threshold after 14-day repeated, sole administration: Example 3, FIG. 1, L and M groups (clonidine 0.1, 0.3 mg/kg subcutaneous; terbutaline 1, 3 mg/kg oral)
Description: Measurement of the Nociceptive Threshold in STZ-Induced Diabetic Rats (Repeated Administration)
STZ (50 mg/kg) was administered intravenously to male SD stain rats to induce diabetes mellitus. […] Normal and Control groups received the medium (0.5% methylcellulose). Before the final administration (before administration of test articles) and after the final administration (one hour after the administration), the nociceptive threshold against pressure stimulation given to the right hind-paw of rats was measured by Randall-Selitto method, and compared with that in Control group.

[2] = test system: STZ-induced diabetic rats; test: Nociceptive threshold in STZ-induced diabetic rats (single administration), Randall-Selitto method; type: in vivo, rat; conditions: for Nociceptive threshold before administration / Nociceptive threshold after administration: mean±SE; for Nociceptive threshold after administration: one hour after administration
Description: Measurement of the Nociceptive Threshold in STZ-Induced Diabetic Rats (Single Administration)
STZ (50 mg/kg) was administered intravenously to male SD stain rats to induce diabetes mellitus. Test articles were administered 14 days later (10 rats in each group). Test articles used were clonidine as the α2 AR stimulant, terbutaline as the β2 AR stimulant and the above-mentioned Compound 1. Normal and Control groups received the medium (0.5% methylcellulose). Before and one hour after administration of test articles, the nociceptive threshold against pressure stimulation given to the right hind-paw of rats was measured by Randall-Selitto method, and compared with that in Control group.

[3] = biological target: T1, β2 AR (Rattus norvegicus, UniProt P10608); test: Receptor binding test of β2 AR; conditions: 3H-dihydroalprenolol; fascia of rat gravid uterus; read-out: binding affinity (IC50 value) to β2 AR
T1 construct: the fascia of gravid uterus (β2 AR) as the sources of receptors; from tissue; host or cells: rat gravid uterus (fascia/membrane specimen)
Description: Receptor Binding Tests of α2 AR and β2 AR
Receptor binding tests were conducted in ^3H-p-aminoclonidine and ^3H-dihydroalprenolol (3 rats in each) using specimens of the membrane of rat cerebral cortex (α2 AR) and the fascia of gravid uterus (β2 AR) as the sources of receptors. The binding ability of Compound 1 to α2 AR and β2 AR were obtained by calculating binding inhibition rates (IC50 values) of Compound 1 against the binding abilities of the above-mentioned tracers with both receptors.

[4] = test system: Seltzer model rats; test: Nociceptive threshold in Seltzer model rats (repeated administration), Randall-Selitto method; type: in vivo, rat; conditions: Example 7, FIG. 4; 10 mg/kg oral, 14-day repeated
Description: Measurement of the Nociceptive Threshold in Seltzer Model Rats (Repeated Administration)
Thirty, 7-week old male SD rats were anesthetized with pentobarbital (Nembutal injection®), and the right sciatic nerve was exposed. In the nerve ligation group (20 rats), half of the dorsal portion of the nerve was ligated using 6-0 silk thread. In the normal group (10 rats), the sciatic nerve was only exposed. Beginning the following day of the model creation, test articles were administered orally once a day, repeatedly, 14 times in total. Normal and Control groups received the medium (0.5% methyl-cellulose) and Nerve ligation group was given orally test articles. One hour after the final administration, the nociceptive threshold against pressure stimulation given to the right hind-paw of rats was measured by Randall-Selitto method, and compared with Control group.

[5] = test system: Seltzer model rats; test: Nociceptive threshold in Seltzer model rats (single administration), Randall-Selitto method; type: in vivo, rat; conditions: Example 6, FIG. 3, 10 mg/kg oral, one hour after administration
Description: Measurement of the Nociceptive Threshold in Seltzer Model Rats (Single Administration)
Ten, 9-week old male SD rats were anesthetized with pentobarbital (Nembutal injection®), and the right sciatic nerve was exposed. In Nerve ligation group (7 rats), half of the dorsal portion of the nerve was ligated using 5-0 nylon thread. In Normal group (3 rats), the sciatic nerve was only exposed. Three weeks after the model was created, the control group received the medium (0.5% methylcellulose) and Nerve ligation group was given orally test articles. Before the administration (before administration of test articles) and after administration (one hour after the administration of test articles), the nociceptive threshold against pressure stimulation given to the right hind-paw of rats was measured by Randall-Selitto method. Results before and after administration were compared.

[6] = H group 10.0 mg/kg oral once a day
[7] = L group 1.0 mg/kg oral once a day
[8] = M group 3.0 mg/kg oral once a day
[9] = Example 1, H group 10.0 mg/kg oral
[10] = Example 1, L group 1.0 mg/kg oral
[11] = H group 1.0 mg/kg subcutaneous once a day
[12] = L group 0.1 mg/kg subcutaneous once a day
[13] = M group 0.3 mg/kg subcutaneous once a day
[14] = Example 1, H group 1.0 mg/kg subcutaneous
[15] = Example 1, L group 0.1 mg/kg subcutaneous

T1 sequence (P10608 whole entry): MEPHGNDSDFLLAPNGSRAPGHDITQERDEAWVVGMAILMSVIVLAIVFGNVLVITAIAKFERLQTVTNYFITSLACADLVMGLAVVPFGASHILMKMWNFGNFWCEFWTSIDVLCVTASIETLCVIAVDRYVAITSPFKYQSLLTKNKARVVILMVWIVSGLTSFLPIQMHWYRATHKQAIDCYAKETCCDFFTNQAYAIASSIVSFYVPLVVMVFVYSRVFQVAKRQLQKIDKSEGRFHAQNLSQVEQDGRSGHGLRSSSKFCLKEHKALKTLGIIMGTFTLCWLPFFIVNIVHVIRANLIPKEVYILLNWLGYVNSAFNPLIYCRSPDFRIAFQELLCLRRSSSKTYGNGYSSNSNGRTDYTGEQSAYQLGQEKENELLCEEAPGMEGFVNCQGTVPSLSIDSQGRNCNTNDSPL

`CC(C)(C)NCC(O)c1cc(O)cc(O)c1` (centres unmarked) [Terbutaline, terbutaline] was tested, and the “Nociceptive threshold before administration” value [1, 6] was 228.2 ± 11.1 g, the “Nociceptive threshold after administration” value [1, 6] was 229.0 ± 14.8 g and the “nociceptive threshold following repeated administration for 14 days” value [1] was “increased significantly”. The “Nociceptive threshold before administration” value [1, 7] was 113.8 ± 11.9 g, the “Nociceptive threshold after administration” value [1, 7] was 115.2 ± 12.6 g and the “Nociceptive threshold before administration” value [1, 8] was 155.4 ± 32.0 g. The “Nociceptive threshold after administration” value [1, 8] was 167.8 ± 32.3 g, the “nociceptive threshold after 14-day repeated, sole administration” value [1] was “in neither L groups or M groups of either test articles, the nociceptive threshold increased” and the “Nociceptive threshold before administration” value [2, 9] was 122.6 ± 14.5 g. The “Nociceptive threshold after administration” value [2, 9] was 146.8 ± 20.7 g, the “Nociceptive threshold before administration” value [2, 10] was 134.2 ± 6.3 g and the “Nociceptive threshold after administration” value [2, 10] was 152.8 ± 12.7 g.
In the case of `Clc1cccc(Cl)c1N=C1NCCN1` [Clonidine, clonidine], the “Nociceptive threshold before administration” value [1, 11] is reported as 97.2 ± 14.5 g, the “Nociceptive threshold after administration” value [1, 11] is reported as 254.4 ± 33.3 g and the “nociceptive threshold following repeated administration for 14 days” value [1] is reported as “increased significantly”. For the same compound, the “Nociceptive threshold before administration” value [1, 12] was 129.2 ± 15.9 g, the “Nociceptive threshold after administration” value [1, 12] was 180.6 ± 24.4 g and the “Nociceptive threshold before administration” value [1, 13] was 104.2 ± 13.8 g. For the same compound, the “Nociceptive threshold after administration” value [1, 13] was 115.2 ± 18.2 g, the “nociceptive threshold after 14-day repeated, sole administration” value [1] was “in neither L groups or M groups of either test articles, the nociceptive threshold increased” and the “analgesic effect compared with Control group” value ([2]; Example 1, H group 1.0 mg/kg subcutaneous, after administration) was “apparent analgesic effect”. For the same compound, the “Nociceptive threshold before administration” value [2, 14] was 115.4 ± 8.9 g, the “Nociceptive threshold after administration” value [2, 14] was 325.8 ± 29.8 g and the “Nociceptive threshold before administration” value [2, 15] was 122.8 ± 7.5 g. The “Nociceptive threshold after administration” value [2, 15] was 155.8 ± 16.3 g.
For `CN(C)C(=O)COc1ccc2c(c1)C[C@@H](NC[C@H](O)c1ccc(O)c(CO)c1)CC2` [Compound 1, (-)-bis{2-[(2S)-2-[{(2R)-2-hydroxy-2-(4-hydroxy-3-hydroxymethyl-phenyl)ethyl}amino]-1,2,3,4-tetrahydronaphthalen-7-yloxy]-N,N-dimethylacetamide}sulfate dihydrate], the “nociceptive thresholds after administration, dose dependence” value ([1]; Example 5, FIG. 2, 0.3, 1, 3 and 10 mg/kg oral, 14-day repeated) was “clearly increased dose-dependently beginning at dosage of 0.3 mg/kg”, the “nociceptive threshold compared with Normal group” value ([1]; Example 5, FIG. 2, oral, 14-day repeated) was “improved the nociceptive threshold to the same level as in Normal group” and the “effect of repeated administration compared with single administration” value ([1]; Example 5, oral, 14-day repeated versus single) was “stronger effect increasing the nociceptive threshold than single administration”. For the same compound, the IC50 [3] was 14 nM, the “nociceptive threshold of the right hind-paw in comparison with that of Control group” value [4] was “improved significantly” and the “Nociceptive threshold before administration” value ([2]; Example 4, 0.3 mg/kg oral) was 71.8 ± 5.3 g. The “Nociceptive threshold after administration” value ([2]; Example 4, 0.3 mg/kg oral) was 117.6 ± 10.7 g, the “Nociceptive threshold before administration” value ([2]; Example 4, 1.0 mg/kg oral) was 95.0 ± 5.1 g and the “Nociceptive threshold after administration” value ([2]; Example 4, 1.0 mg/kg oral) was 131.0 ± 12.3 g. The analgesic effects ([2]; Example 4, 3 mg/kg and 10 mg/kg oral) was “apparent analgesic effects”, the “Nociceptive threshold before administration” value ([2]; Example 4, 3.0 mg/kg oral) was 92.0 ± 13.3 g and the “Nociceptive threshold after administration” value ([2]; Example 4, 3.0 mg/kg oral) was 174.6 ± 15.4 g. For the same compound, the “Nociceptive threshold before administration” value ([2]; Example 4, 10.0 mg/kg oral) was 89.0 ± 10.2 g, the “Nociceptive threshold after administration” value ([2]; Example 4, 10.0 mg/kg oral) was 253.4 ± 28.3 g and the “nociceptive thresholds after administration, dose dependence” value ([2]; Example 4, 0.3, 1, 3 and 10 mg/kg oral) was “increased dose-dependently”. The “nociceptive threshold of Nerve ligation group in comparison with that before administration” value [5] was “improved significantly”.
